The source of these data is ChEMBL document CHEMBL1134975, “3-Hydroxy-4-methyl-5-pentyl-2-iminopyrrolidine: a potent and highly selective inducible nitric oxide synthase inhibitor” (Bioorg Med Chem Lett, 2002).

One assay deals with Nitric oxide synthase 1 (Homo sapiens, UniProt P29475). Briefly: Inhibitory concentration against Neuronal nitric oxide synthase.
For assay [1], the target named is Nitric oxide synthase, inducible (Homo sapiens, UniProt P35228). Briefly: Inhibitory concentration against Inducible nitric oxide synthase (iNOS).
Assay [2] deals with T1, Nitric oxide synthase 3 (Homo sapiens, UniProt P29474).
T1 sequence (P29474 whole entry): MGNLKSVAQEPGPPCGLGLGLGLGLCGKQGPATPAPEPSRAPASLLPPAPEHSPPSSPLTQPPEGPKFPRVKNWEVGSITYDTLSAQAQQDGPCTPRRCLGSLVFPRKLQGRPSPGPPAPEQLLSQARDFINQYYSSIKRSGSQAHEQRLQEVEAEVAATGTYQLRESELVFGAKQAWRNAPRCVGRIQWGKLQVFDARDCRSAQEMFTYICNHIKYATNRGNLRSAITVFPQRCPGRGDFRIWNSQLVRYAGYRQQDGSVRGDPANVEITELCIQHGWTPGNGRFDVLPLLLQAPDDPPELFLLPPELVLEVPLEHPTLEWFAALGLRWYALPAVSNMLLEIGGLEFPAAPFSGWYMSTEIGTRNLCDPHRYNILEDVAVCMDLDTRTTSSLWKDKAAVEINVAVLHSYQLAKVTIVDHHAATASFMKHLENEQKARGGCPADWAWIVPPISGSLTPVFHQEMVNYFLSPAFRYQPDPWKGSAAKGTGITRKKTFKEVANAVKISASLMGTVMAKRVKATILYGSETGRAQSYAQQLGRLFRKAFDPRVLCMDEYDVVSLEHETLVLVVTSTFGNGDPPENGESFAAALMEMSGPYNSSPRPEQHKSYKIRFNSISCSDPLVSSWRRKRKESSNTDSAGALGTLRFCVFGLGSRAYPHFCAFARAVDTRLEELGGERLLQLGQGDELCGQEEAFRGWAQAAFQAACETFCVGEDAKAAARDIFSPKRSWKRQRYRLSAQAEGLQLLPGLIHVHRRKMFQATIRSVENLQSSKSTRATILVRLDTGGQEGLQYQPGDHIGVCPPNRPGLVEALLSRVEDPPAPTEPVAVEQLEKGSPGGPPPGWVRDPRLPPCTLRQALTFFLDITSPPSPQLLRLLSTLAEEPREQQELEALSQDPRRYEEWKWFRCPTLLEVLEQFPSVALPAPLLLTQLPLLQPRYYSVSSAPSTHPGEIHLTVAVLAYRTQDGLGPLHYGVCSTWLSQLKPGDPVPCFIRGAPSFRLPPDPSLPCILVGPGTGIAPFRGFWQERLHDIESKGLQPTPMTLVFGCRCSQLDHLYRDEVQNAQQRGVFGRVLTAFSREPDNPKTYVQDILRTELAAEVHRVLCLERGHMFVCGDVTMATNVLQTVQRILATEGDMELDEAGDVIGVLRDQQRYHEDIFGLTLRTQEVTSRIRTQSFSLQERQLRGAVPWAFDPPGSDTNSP
Briefly: Inhibitory activity against Endothelial nitric oxide synthase.

Assay [3] has as its target T1, Nitric oxide synthase 3. Kind of assay: Inhibitory concentration against Endothelial nitric oxide synthase.

Sequence of Nitric oxide synthase 1 (P29475 whole entry): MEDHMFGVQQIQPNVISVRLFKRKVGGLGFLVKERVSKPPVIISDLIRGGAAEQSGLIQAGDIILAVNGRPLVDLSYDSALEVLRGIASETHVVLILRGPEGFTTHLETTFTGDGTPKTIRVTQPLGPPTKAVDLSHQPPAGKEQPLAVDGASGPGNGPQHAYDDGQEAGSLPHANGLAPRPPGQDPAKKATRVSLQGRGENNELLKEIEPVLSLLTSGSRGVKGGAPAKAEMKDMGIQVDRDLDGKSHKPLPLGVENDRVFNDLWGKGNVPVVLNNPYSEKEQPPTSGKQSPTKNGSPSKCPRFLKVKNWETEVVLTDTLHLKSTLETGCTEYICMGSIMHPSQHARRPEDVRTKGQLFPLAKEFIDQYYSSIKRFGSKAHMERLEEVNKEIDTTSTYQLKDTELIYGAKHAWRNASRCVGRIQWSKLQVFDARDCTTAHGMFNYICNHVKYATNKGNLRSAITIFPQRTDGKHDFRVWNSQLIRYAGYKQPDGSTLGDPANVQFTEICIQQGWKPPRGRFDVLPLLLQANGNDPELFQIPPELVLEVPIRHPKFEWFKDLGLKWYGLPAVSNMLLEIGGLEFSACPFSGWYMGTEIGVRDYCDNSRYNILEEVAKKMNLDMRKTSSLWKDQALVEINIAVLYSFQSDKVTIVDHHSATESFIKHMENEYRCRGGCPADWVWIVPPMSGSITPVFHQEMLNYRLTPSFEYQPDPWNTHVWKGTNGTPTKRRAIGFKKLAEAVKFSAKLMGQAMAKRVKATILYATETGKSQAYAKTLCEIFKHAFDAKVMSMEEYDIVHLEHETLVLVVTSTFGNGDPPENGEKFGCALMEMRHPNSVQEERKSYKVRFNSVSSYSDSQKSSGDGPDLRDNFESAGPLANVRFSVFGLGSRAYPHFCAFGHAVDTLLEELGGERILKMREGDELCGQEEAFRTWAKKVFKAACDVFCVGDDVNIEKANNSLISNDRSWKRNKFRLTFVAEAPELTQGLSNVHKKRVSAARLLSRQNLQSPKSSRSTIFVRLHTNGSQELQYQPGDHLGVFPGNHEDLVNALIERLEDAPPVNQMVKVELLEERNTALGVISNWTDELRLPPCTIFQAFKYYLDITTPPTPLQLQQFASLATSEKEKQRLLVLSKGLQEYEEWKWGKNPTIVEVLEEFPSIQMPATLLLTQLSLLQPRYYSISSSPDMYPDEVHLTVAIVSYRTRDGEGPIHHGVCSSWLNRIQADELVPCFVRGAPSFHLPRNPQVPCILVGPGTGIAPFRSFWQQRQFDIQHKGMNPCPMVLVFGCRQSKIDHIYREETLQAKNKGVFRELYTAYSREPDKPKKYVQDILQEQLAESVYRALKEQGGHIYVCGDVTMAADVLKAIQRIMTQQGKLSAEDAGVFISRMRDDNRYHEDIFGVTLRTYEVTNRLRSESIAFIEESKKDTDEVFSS
Sequence of Nitric oxide synthase, inducible (P35228 whole entry): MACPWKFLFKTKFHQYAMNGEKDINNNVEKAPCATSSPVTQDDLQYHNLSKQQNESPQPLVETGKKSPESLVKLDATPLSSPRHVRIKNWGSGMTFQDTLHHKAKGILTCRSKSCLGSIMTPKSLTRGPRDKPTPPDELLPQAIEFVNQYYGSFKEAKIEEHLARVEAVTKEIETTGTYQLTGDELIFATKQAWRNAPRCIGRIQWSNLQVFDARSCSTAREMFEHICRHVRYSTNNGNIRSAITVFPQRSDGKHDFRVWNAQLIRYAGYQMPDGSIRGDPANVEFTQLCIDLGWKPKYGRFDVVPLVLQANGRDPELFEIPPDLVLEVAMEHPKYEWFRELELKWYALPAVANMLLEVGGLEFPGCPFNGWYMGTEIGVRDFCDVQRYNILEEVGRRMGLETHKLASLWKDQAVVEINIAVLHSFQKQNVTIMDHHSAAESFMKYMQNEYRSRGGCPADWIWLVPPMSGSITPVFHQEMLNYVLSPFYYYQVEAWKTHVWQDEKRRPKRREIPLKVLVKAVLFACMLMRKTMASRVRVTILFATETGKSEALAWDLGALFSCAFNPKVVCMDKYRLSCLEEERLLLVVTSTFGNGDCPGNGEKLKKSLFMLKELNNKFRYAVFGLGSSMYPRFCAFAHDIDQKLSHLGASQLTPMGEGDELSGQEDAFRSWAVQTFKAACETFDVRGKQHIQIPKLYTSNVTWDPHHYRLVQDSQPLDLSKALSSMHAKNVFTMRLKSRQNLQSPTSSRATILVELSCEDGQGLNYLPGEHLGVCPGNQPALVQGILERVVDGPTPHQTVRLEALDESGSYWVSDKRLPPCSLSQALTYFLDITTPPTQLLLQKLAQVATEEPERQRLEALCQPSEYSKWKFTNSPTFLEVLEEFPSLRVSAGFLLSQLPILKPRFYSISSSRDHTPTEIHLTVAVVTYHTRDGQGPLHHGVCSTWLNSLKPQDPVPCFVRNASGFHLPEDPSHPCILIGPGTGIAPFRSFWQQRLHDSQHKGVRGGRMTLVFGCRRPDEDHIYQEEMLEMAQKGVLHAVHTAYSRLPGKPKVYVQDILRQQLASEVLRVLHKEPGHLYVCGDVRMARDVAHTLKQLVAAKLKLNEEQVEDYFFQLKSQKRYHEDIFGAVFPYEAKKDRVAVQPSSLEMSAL

In the case of `CCCCC[C@H]1NC(=N)[C@@H](O)[C@H]1C`, the concentration for half-maximal inhibition (IC50) worked out at 27 µM against Nitric oxide synthase 1, 0.78 µM in assay [1] and 1980 µM at Nitric oxide synthase 3 [2].

`CCCCC[C@@H]1N=C(N)[C@H](O)[C@@H]1C`: the half-maximal inhibitory concentration (IC50) against Nitric oxide synthase 3 [3] was found to be 2930 µM; at Nitric oxide synthase 1, 49 µM; in assay [1], 2.8 µM.

As for `CCCCC[C@H]1N=C(N)[C@H](O)[C@H]1C`, the results for the IC50 (against Nitric oxide synthase 3 [3]; at Nitric oxide synthase 1; in assay [1]) were 695 µM, 8.9 µM and 1.8 µM, respectively.

As for `CCCCC[C@H]1NC(=N)C[C@H]1C`, the figures for the IC50 (against Nitric oxide synthase 1; in assay [1]; on Nitric oxide synthase 3 [2]) were 3.2 µM, 0.25 µM and 226 µM, respectively.

Regarding `CCCCC[C@@H]1N=C(N)[C@@H](O)[C@@H]1C`, the IC50 against Nitric oxide synthase 3 [3] was found to be 930 µM; at Nitric oxide synthase 1 it was 20 µM; in assay [1] it was 1.8 µM.

Take `CCCCC[C@H]1NC(=N)C[C@H]1C` (single isomer, unassigned): the IC50 turned out to be 21 µM against Nitric oxide synthase 1, 4.5 µM in assay [1] and 578 µM at Nitric oxide synthase 3 [2].

Usually IC50 stands for the concentration that gives 50% inhibition.
